From publication PMC11251166 (Nature Communications, 2024)

What was measured:
MavL40-404 = target: T1, MavL40-404 (Legionella pneumophila, UniProt Q5ZSJ1)
T1 construct: gene lpg2526

LnaB = target: T2, LnaB (Legionella pneumophila, UniProt Q5ZSJ0); assay: biochemical
T2 construct: gene lpg2527
T2 sequence (Q5ZSJ0 1-558 limits assumed): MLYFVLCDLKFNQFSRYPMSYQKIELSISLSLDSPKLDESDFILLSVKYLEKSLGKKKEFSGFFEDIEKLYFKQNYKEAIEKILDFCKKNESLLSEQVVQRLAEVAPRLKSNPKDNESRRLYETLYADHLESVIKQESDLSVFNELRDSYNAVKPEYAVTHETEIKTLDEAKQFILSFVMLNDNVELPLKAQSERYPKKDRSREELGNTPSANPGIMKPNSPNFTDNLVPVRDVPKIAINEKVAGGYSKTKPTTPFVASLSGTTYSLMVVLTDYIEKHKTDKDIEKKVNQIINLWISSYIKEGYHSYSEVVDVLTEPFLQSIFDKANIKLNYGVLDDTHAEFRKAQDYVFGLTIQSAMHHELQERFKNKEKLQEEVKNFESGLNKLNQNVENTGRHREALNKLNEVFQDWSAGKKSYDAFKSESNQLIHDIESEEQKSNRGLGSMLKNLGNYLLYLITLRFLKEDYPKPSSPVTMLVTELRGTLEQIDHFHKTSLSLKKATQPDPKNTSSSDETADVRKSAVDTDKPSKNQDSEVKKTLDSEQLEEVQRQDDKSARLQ

T1 sequence (Q5ZSJ1 40-404 limits assumed): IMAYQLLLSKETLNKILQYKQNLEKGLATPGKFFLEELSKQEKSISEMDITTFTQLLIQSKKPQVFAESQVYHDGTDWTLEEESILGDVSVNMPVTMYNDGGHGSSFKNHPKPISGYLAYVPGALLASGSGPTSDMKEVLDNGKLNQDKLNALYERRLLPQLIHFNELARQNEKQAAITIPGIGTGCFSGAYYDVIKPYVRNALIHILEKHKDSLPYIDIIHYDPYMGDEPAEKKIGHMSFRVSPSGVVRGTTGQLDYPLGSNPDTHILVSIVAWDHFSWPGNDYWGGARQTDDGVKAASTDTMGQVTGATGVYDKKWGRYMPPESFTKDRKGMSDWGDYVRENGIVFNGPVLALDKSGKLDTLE

SMILES	Kd (MavL40-404) [µM]	Kd (LnaB) [µM]
Nc1ncnc2c1ncn2[C@@H]1O[C@H](COP(=O)(O)OP(=O)(O)OC[C@H]2OC(O)[C@H](O)[C@@H]2O)[C@@H](O)[C@H]1O (some centres unmarked) [ADPR]	25 ± 3.24	
Nc1ncnc2c1ncn2[C@@H]1O[C@H](COP(=O)(O)OP(=O)(O)OP(=O)(O)O)[C@@H](O)[C@H]1O [ATP]		15.4 ± 4.85
